From patent publication US6531148B1, “Therapeutic agents” (Takara Shuzo Co., Ltd., priority 1998, dated 2003)
pIC50: −log10 of the molar value. Where two headings read alike, the source gives them in different places.

Columns and labels:
[1] = system: Bacteria 1 to 5; assay: Antimicrobial activity test (overall statement); type: cell-based
Method: The antimicrobial activities of DGE against Escherichia coli W3110 (Bacterium 1), Salmonella typhimurium LT2 (Bacterium 2), Bacillus subtilis IFO3021 (Bacterium 3), Pseudomonas aeruginosa IFO3080 (Bacterium 4) and Streptococcus mutans GS5 (Bacterium 5) were examined as follows.
The Bacteria 1 to 4 were cultured overnight in L-broth. The cultures were diluted to a concentration of about 2×10^5 cells/180 μl with Sensitive Bouillon medium (Nissui) base on the turbidity. The Bacterium 5 was cultured overnight in Brain Heart Infusion medium. The culture was diluted to a concentration of about 2×10^5 cells/180 μl with Brain Heart Infusion medium based on the turbidity. 180 μl of each bacterial dilution was placed in each well of a 96-well microtiter plate. On the other hand, the respective bacterial dilutions were further diluted and spread onto plates of L-broth or Brain Heart Infusion medium. The plates were incubated at 37° C. overnight. The resulting colonies were counted to determine the stating viable cell numbers.
A 14.4 mg/ml DGE solution was diluted every 2-folds to prepare serial dilutions. 20 μl each of the dilutions was placed in the well in which the bacterial dilution had been placed. The cells were cultured at 37° C. for 24 hours without shaking. After cultivation, the turbidity of each culture was measured.
Furthermore, the culture from the well for which the growth of bacterial cells was not observed was spread onto plates. After the plates were incubated at 37° C. overnight, the colony number was counted to determine the viable cell number. […] The minimal growth-inhibitory concentrations and the minimal bacteriocidal concentrations of DGE for the Bacteria 1 to 5 were determined as shown in Table 2.

[2] = system: Ehrlich's carcinoma cells; assay: Carcinostatic activity test, Ehrlich's carcinoma; type: in vivo, mice; details: for carcinostatic activity: mouse, in vivo; for 30-day survival number: 6 mice per group, control 0; for Average days of survival: 30 days observation, control 14.3
Method: (2) Ehrlich's carcinoma cells were administered to 18 female ddY mice (5 weeks old, weighing about 25 g) intraperitoneally (1.2×10^6 cells/mouse). Observation was continued for 30 days. The average days of survival, the prolongation rate and the 30-day survival number were then calculated. Mice were divided into 3 group each consisting of 6 mice. One was a control group, and other two groups received DGE at 2 mg/kg and 20 mg/kg, respectively. DGE was intraperitoneally administered for 4 days from the day after the administration of cancer.

[3] = system: DSEK cells; assay: Antirheumatic activity test (DSEK cell growth, WST-1); type: cell-based, human; details: for antirheumatic activity (growth inhibition of rheumatoid cells) / pIC50: DSEK cells; for pIC50: Homo sapiens, read-out: concentration that results in the inhibition of the growth of half-cells (IC50)
Method: DSEK cell is a fibroblast cell line established from a synovial membrane of a human patient with chronic rheumatism and is held at Department of Second Internal Medicine, Integrated Medical Center, Saitama Collage of Medicine as an in vitro rheumatoid model. DSEK cells were cultured in Iscov-MEM medium (IMDM: Gibco-BRL) containing 10% FBS (Bio Whittaker) at 37° C. in the presence of 5% CO2 to confluence. The cells were suspended in the same medium at a concentration of 3×10^4 cells/ml using a trypsin-EDTA solution (Bio Whittaker). 200 μl of the suspension was dispensed into each well of a 96-well microtiter plate (Falcon). After culturing for 5 to 7 days at which time the cells grew to 80% confluence, the medium was changed to 200 μl of the above-mentioned medium containing DGE at a 25, 50, 75, 100, 200 or 400 μM.
After incubating for 24 or 72 hours, 10 μl of Premix WST-1 (Takara Shuzo, MK400) was added to the well. The mixture was reacted at 37° C. for 3.5 hours. The degree of cell growth was expressed by a value obtained by subtracting the absorbance at 650 nm (A650) from the absorbance at 450 nm (A450).

[4] = system: 70-kDa heat shock protein; assay: Heat shock protein induction test; type: cell-based; set-up: key to Induction of heat shock protein: − means that no induction was observed; + represents the induction level. Increased number of + means increased induction; + +: + represents the induction level. Increased number of + means increased induction; + + +: + represents the induction level. Increased number of + means increased induction; + + + +: + represents the induction level. Increased number of + means increased induction; details: HL-60 cells; for activity of inducing heat shock protein: 70-kDa heat shock protein; for Induction of heat shock protein: 6 hours
Method: 5 ml of RPMI 1640 medium containing 10% fetal bovine serum and HL-60 cells at a concentration of 2×10^5 cells/ml was placed in each well of a 6-well plate. The plate was incubated at 37° C. for 24 hours in the presence of 5% CO2. DGE at a final concentration of 0, 6.25, 12.5, 25, 50 or 100 μM was then added thereto. The incubation was continued for additional 6 hours.
After cultivation, the cell number was counted.
The cells were harvested by centrifugation, washed with PBS to prepare DGE-treated cells. Cells that were cultured in the same manner after heated at 45° C. for 10 minutes were also prepared.
These treated cells were used for SDS-PAGE according to the method as described in Molecular Cloning [Cold Spring Harbor Laboratory Press (1989)]. The treated cells were suspended in SDS-PAGE Sample buffer at a concentration of 2.5×10^6 cells/ml. The cell suspensions were treated at 100° C. for 10 minutes. 5 μl each of the cell suspensions was applied to two SDS-PAGE gels (5% stacking gel, 10% separation gel) and electrophoresed. One of the gels was subjected to Coomassie staining. The other gel was blotted onto a polyvinylidene difluoride transfer membrane [Immobilon™, Millipore, Cat. # IPVH000-10]. The membrane was blocked at 4° C. overnight using Block Ace (Dainippon Pharmaceutical, Cat. # UK-B25).
The blocked membrane was reacted with a monoclonal antibody HSP72/73(Ab-1) (Oncogene Research Products, Cat. # HSP01), which specifically reacts with heat-inducible 70-kDa heat shock protein. The membrane was washed with TBS containing 0.05% Tween 20 followed by TBS. The membrane was then reacted with a peroxidase-conjugated secondary antibody HRT-rabbit anti-mouse IgG (H+L) (Zymed Laboratories, Inc., Cat. # 61-6520), and then washed as described above. The membrane reacted with the primary and secondary antibodies was reacted with a chemiluminol reagent, Renaissance™ (Dupont NEN, Cat. # NEL-100). The membrane was then exposed to an X-ray film to confirm the induction of 70-kDa heat shock protein.

[5] = DGE at 2 mg/kg intraperitoneally for 4 days
[6] = DGE at 20 mg/kg intraperitoneally for 4 days

Compound: O=C1C=CC(CO)OC1O [κ-DGE, D-glycero-1,5-epoxy-1αβ,6-dihydroxy-cis-hex-3-en-2-one]
- antimicrobial activity [1]: also exhibited similar activities
- carcinostatic activity [2]: also exhibited similar activities
- antirheumatic activity (growth inhibition of rheumatoid cells) [3]: also exhibited similar activities
- activity of inducing heat shock protein [4]: also exhibited similar activities of inducing heat shock protein

Compound: 5-L-glutathion-S-yl-2-hydroxy-3,7-dioxabicyclo[2.2.2]octan-1-ol [DGE-GSH]
- antimicrobial activity [1]: also exhibited similar activities
- carcinostatic activity [2]: also exhibited similar activities
- antirheumatic activity (growth inhibition of rheumatoid cells) [3]: also exhibited similar activities
- activity of inducing heat shock protein [4]: also exhibited similar activities of inducing heat shock protein

Compound: O=C1C=CC(CO)OC1O [DGE, L-glycero-1,5-epoxy-1αβ,6-dihydroxy-cis-hex-3-en-2-one]
- antimicrobial activity [1]: exhibited an antimicrobial activity
- 30-day survival number [2, 5]: 1
- Average days of survival [2, 5]: 23.7 days
- 30-day survival number [2, 6]: 3
- Average days of survival [2, 6]: 28.0 days
- carcinostatic activity [2]: exhibited a carcinostatic activity
- Degree of cell growth (A450-650) ([3]; DGE 25 μM, culture period 24 hours, 0 μM 3.98): 3.86
- Degree of cell growth (A450-650) ([3]; DGE 25 μM, culture period 72 hours, 0 μM 3.94): 3.33
- Degree of cell growth (A450-650) ([3]; DGE 50 μM, culture period 24 hours, 0 μM 3.98): 3.24
- Degree of cell growth (A450-650) ([3]; DGE 50 μM, culture period 72 hours, 0 μM 3.94): 3.25
- Degree of cell growth (A450-650) ([3]; DGE 100 μM, culture period 24 hours, 0 μM 3.98): 2.88
- Degree of cell growth (A450-650) ([3]; DGE 100 μM, culture period 72 hours, 0 μM 3.94): 2.05
- Degree of cell growth (A450-650) ([3]; DGE 200 μM, culture period 24 hours, 0 μM 3.98): 1.26
- Degree of cell growth (A450-650) ([3]; DGE 200 μM, culture period 72 hours, 0 μM 3.94): 0.48
- Degree of cell growth (A450-650) ([3]; DGE 400 μM, culture period 24 hours, 0 μM 3.98): 0.71
- Degree of cell growth (A450-650) ([3]; DGE 400 μM, culture period 72 hours, 0 μM 3.94): 0.35
- antirheumatic activity (growth inhibition of rheumatoid cells) [3]: the growth of the rheumatoid cells was strongly inhibited
- pIC50 ([3]; at 24 hours): 3.68
- pIC50 ([3]; at 72 hours): 3.95
- activity of inducing heat shock protein [4]: the induction of 70-kDa heat shock protein by DGE was observed
- Induction of heat shock protein ([4]; 6.25 μM DGE): +
- Induction of heat shock protein ([4]; 12.5 μM DGE): +
- Induction of heat shock protein ([4]; 25.0 μM DGE): + +
- Induction of heat shock protein ([4]; 50.0 μM DGE): + + +
- Induction of heat shock protein ([4]; 100 μM DGE): + + + +
